According to patent US9902702B2, “Spirocycloheptanes as inhibitors of rock” (BRISTOL-MYERS SQUIBB COMPANY, priority 2014, dated 2018):
Where a name gives a salt, the structure may show the parent alone.

These compounds were tested against ROCK2 (Homo sapiens, UniProt O75116) (assay: ROCK assay: phosphorylation of FITC peptide substrate, LABCHIP 3000 mobility shift). Conditions: 5 μM ATP, 1.5 μM peptide substrate; read-out: ROCK2 Activity (ROCK IC50 range).
Assay type: biochemical
Summary of the method: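 Rho kinase variant phosphorylates 1.5 μM FITC-AHA-AKRRRLSSLRA-OH with 5 μM ATP in 20 mM HEPES pH 7.5, 20 mM MgCl2, 0.015% Brij-35, 4 mM DTT, DMSO <2%. EDTA stops the reaction, and phospho and non-phospho peptides are resolved by LabChip 3000 mobility shift. IC50 from dose-response curve fit.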

Chain of ROCK2 (O75116 whole entry, species assumed): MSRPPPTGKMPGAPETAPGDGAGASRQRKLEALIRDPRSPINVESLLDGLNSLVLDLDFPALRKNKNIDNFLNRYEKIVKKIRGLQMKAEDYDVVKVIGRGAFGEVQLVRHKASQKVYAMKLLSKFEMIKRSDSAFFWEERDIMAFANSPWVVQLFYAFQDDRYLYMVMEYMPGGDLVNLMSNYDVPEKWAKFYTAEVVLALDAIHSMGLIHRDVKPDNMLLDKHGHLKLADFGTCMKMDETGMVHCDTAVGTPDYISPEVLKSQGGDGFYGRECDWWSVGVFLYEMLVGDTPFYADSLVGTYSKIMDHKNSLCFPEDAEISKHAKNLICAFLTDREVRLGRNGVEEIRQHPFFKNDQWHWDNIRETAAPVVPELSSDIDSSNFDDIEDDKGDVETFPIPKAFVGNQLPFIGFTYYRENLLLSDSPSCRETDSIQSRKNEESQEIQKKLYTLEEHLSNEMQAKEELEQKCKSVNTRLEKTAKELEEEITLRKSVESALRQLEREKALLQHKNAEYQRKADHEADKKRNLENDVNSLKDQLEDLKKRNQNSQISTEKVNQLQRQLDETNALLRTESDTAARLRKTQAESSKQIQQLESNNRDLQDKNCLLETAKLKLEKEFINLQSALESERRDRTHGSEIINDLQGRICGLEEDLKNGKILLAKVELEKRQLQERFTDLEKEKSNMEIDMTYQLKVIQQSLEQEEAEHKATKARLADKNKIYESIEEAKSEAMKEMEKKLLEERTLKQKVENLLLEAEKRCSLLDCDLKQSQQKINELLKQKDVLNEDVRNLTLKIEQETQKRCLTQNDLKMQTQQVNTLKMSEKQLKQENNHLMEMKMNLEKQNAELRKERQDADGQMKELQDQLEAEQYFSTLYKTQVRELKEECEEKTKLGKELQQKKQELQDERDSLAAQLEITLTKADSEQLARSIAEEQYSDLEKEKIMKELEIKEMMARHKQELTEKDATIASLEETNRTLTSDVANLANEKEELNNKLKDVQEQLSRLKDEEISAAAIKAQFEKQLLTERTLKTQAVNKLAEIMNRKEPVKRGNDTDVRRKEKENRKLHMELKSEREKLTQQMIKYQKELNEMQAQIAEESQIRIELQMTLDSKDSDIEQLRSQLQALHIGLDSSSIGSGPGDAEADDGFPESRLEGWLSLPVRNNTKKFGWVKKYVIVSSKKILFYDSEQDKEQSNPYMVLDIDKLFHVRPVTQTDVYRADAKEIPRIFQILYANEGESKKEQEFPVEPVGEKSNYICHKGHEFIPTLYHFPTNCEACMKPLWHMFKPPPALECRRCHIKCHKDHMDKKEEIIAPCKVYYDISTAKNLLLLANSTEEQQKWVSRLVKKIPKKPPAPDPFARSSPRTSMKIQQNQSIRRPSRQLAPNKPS

| SMILES | IC50 [nM] |
| --- | --- |
| CCn1nccc1C(=O)NC1CC2(C1)CC(c1n[nH]c(=O)c3ccccc13)C2 [Example 285, 1-ethyl-N-((aR)-6-(4-oxo-3,4-dihydrophthalazin-1-yl)spiro[3.3]heptan-2-yl)-1H-pyrazole-5-carboxamide] | 15.1 to 100 |
| O=C(NC1CC2(C1)CC(c1n[nH]c(=O)c3ccccc13)C2)c1ccnn1C(F)F [Example 286, 1-(difluoromethyl)-N-((aR)-6-(4-oxo-3,4-dihydrophthalazin-1-yl)spiro[3.3]heptan-2-yl)-1H-pyrazole-5-carboxamide] | 15.1 to 100 |
| CC(C)(O)COc1ccc2c(C(=O)NC3CC4(C3)CC(c3n[nH]c(=O)c5ccccc35)C4)onc2c1 [Example 287, 6-(2-hydroxy-2-methylpropoxy)-N-((aR)-6-(4-oxo-3,4-dihydrophthalazin-1-yl)spiro[3.3]heptan-2-yl)benzo[c]isoxazole-3-carboxamide, TFA] | 0.2 to 2 |
| O=C(NC1CC2(C1)CC(c1n[nH]c(=O)c3ccccc13)C2)c1nn(-c2cccc(Cl)c2)c2c1CCNC2=O [Example 288, 1-(3-chlorophenyl)-7-oxo-N-((aR)-6-(4-oxo-3,4-dihydrophthalazin-1-yl)spiro[3.3]heptan-2-yl)-4,5,6,7-tetrahydro-1H-pyrazolo[3,4-c] pyridine-3-carboxamide] | 15.1 to 100 |
| COc1ccc(-n2nc(C(=O)NC3CC4(C3)CC(c3n[nH]c(=O)c5ccccc35)C4)c3c2C(=O)NCC3)cc1 [Example 289, 1-(4-methoxyphenyl)-7-oxo-N-((aR)-6-(4-oxo-3,4-dihydrophthalazin-1-yl)spiro[3.3]heptan-2-yl)-4,5,6,7-tetrahydro-1H-pyrazolo[3,4-c]pyridine-3-carboxamide] | 15.1 to 100 |
| O=C(NC1CC2(C1)CC(c1n[nH]c(=O)c3ccccc13)C2)c1noc2ccc(Cl)cc12 [Example 290, 5-chloro-N-((aR)-6-(4-oxo-3,4-dihydrophthalazin-1-yl)spiro[3.3]heptan-2-yl)benzo[d]isoxazole-3-carboxamide] | 2.01 to 5 |
| CC(=O)Nc1ccc2c(C(=O)NC3CC4(C3)CC(c3n[nH]c(=O)c5ccccc35)C4)noc2c1 [Example 291, 6-acetamido-N-((aR)-6-(4-oxo-3,4-dihydrophthalazin-1-yl)spiro[3.3]heptan-2-yl)benzo[d]isoxazole-3-carboxamide] | 5.1 to 15 |
| [H][C@]1(c2n[nH]c(=O)c3ccccc32)C[C@@]2(C[C@H](NC(=O)c3ncn4ccccc34)C2)C1 (stereo partly drawn) [Example 292, N-((aR)-6-(4-oxo-3,4-dihydrophthalazin-1-yl)spiro[3.3]heptan-2-yl)imidazo[1,5-a]pyridine-1-carboxamide] | 15.1 to 100 |
| [H][C@]1(c2n[nH]c(=O)c3ccccc32)C[C@@]2(C[C@H](NC(=O)c3cc4cc(OC)ccc4n3C)C2)C1 (stereo partly drawn) [Example 293, 5-methoxy-1-methyl-N-((aR)-6-(4-oxo-3,4-dihydrophthalazin-1-yl)spiro[3.3]heptan-2-yl)-1H-indole-2-carboxamide] | 15.1 to 100 |
| [H][C@]1(c2n[nH]c(=O)c3ccccc32)C[C@@]2(C[C@H](NC(=O)c3cc4ccccc4n3C)C2)C1 (stereo partly drawn) [Example 294, 1-methyl-N-((aR)-6-(4-oxo-3,4-dihydrophthalazin-1-yl)spiro[3.3]heptan-2-yl)-1H-indole-2-carboxamide] | 5.1 to 15 |
| [H][C@]1(c2n[nH]c(=O)c3ccccc32)C[C@@]2(C[C@H](NC(=O)c3cc4cccc(OC)c4[nH]3)C2)C1 (stereo partly drawn) [Example 295, 7-methoxy-N-((aR)-6-(4-oxo-3,4-dihydrophthalazin-1-yl)spiro[3.3]heptan-2-yl)-1H-indole-2-carboxamide] | 5.1 to 15 |
| [H][C@]1(c2n[nH]c(=O)c3ccccc32)C[C@@]2(C[C@H](NC(=O)c3nc4c(s3)CN(C)CC4)C2)C1 (stereo partly drawn) [Example 296, 5-methyl-N-((aR)-6-(4-oxo-3,4-dihydrophthalazin-1-yl)spiro[3.3]heptan-2-yl)-4,5,6,7-tetrahydrothiazolo [5,4-c]pyridine-2-carboxamide] | 100 to 2100 |
| [H][C@]1(c2n[nH]c(=O)c3ccccc32)C[C@@]2(C[C@H](NC(=O)c3cc4c(Cl)cccc4n3C)C2)C1 (stereo partly drawn) [Example 297, 4-chloro-1-methyl-N-((aR)-6-(4-oxo-3,4-dihydrophthalazin-1-yl)spiro[3.3]heptan-2-yl)-1H-indole-2-carboxamide] | 2.01 to 5 |
| [H][C@]1(c2n[nH]c(=O)c3ccccc32)C[C@@]2(C[C@H](NC(=O)c3cc4ccccc4[nH]3)C2)C1 (stereo partly drawn) [Example 298, N-((aR)-6-(4-oxo-3,4-dihydrophthalazin-1-yl)spiro[3.3]heptan-2-yl)-1H-indole-2-carboxamide] | 5.1 to 15 |
| [H][C@]1(c2n[nH]c(=O)c3ccccc32)C[C@]2(C[C@@H](NC(=O)c3c(C)nc4ccccn34)C2)C1 (stereo partly drawn) [Example 299, 2-methyl-N-((aR)-6-(4-oxo-3,4-dihydrophthalazin-1-yl)spiro[3.3]heptan-2-yl)imidazo[1,2-a]pyridine-3-carboxamide] | 15.1 to 100 |
| [H][C@]1(c2n[nH]c(=O)c3ccccc32)C[C@]2(C[C@@H](NC(=O)c3c[nH]c4ccccc34)C2)C1 (stereo partly drawn) [Example 300, N-((aR)-6-(4-oxo-3,4-dihydrophthalazin-1-yl)spiro[3.3]heptan-2-yl)-1H-indole-3-carboxamide] | 5.1 to 15 |
| [H][C@]1(c2n[nH]c(=O)c3ccccc32)C[C@]2(C[C@@H](NC(=O)c3cc4cccc(Cl)c4n3C)C2)C1 (stereo partly drawn) [Example 301, 7-chloro-1-methyl-N-((aR)-6-(4-oxo-3,4-dihydrophthalazin-1-yl)spiro[3.3]heptan-2-yl)-1H-indole-2-carboxamide] | 2.01 to 5 |
| [H][C@]1(c2n[nH]c(=O)c3ccccc32)C[C@]2(C[C@@H](NC(=O)c3cc4c(Cl)ccc(C)c4[nH]3)C2)C1 (stereo partly drawn) [Example 302, 4-chloro-7-methyl-N-((aR)-6-(4-oxo-3,4-dihydrophthalazin-1-yl)spiro[3.3]heptan-2-yl)-1H-indole-2-carboxamide] | 0.2 to 2 |
| [H][C@]1(c2n[nH]c(=O)c3ccccc32)C[C@]2(C[C@@H](NC(=O)c3cc4nccnc4s3)C2)C1 (stereo partly drawn) [Example 303, N-((aR)-6-(4-oxo-3,4-dihydrophthalazin-1-yl)spiro[3.3]heptan-2-yl)thieno[2,3-b]pyrazine-6-carboxamide] | 5.1 to 15 |
| [H][C@]1(c2n[nH]c(=O)c3ccccc32)C[C@]2(C[C@@H](NC(=O)c3cnn4cccc(Br)c34)C2)C1 (stereo partly drawn) [Example 304, 4-bromo-N-((aR)-6-(4-oxo-3,4-dihydrophthalazin-1-yl)spiro[3.3]heptan-2-yl)pyrazolo[1,5-a]pyridine-3-carboxamide] | 15.1 to 100 |
| [H][C@]1(c2n[nH]c(=O)c3ccccc32)C[C@]2(C[C@@H](NC(=O)c3nc4ccc(Cl)cc4[nH]3)C2)C1 (stereo partly drawn) [Example 305, 6-chloro-N-((aR)-6-(4-oxo-3,4-dihydrophthalazin-1-yl)spiro[3.3]heptan-2-yl)-1H-benzo[d] imidazole-2-carboxamide] | 15.1 to 100 |
| [H][C@]1(c2n[nH]c(=O)c3ccccc32)C[C@]2(C[C@@H](NC(=O)c3cc4cc(Cl)ccc4n3C)C2)C1 (stereo partly drawn) [Example 306, 5-chloro-1-methyl-N-((aR)-6-(4-oxo-3,4-dihydrophthalazin-1-yl)spiro[3.3]heptan-2-yl)-1H-indole-2-carboxamide] | 5.1 to 15 |
